Reference: patent US8288142B2, “Hyaluronidase and method of use thereof” (priority 2007, dated 2012)
Read-outs that look alike come from different tables or passages of the source.

Key:
microbial hyaluronidase = assay type: biochemical, Streptomyces actinocidus; conditions: for effect on activity of microbial hyaluronidase: 10^−3-10^−4 M; for effect on hyaluronidase / inhibition of hyaluronidase activity: 10^−2 M; for inhibition of activity of microbial hyaluronidase: 10^−3 M
[1] = tested on: hyaluronidase derived from Stm. Hyalurolyticus; conditions: 10^−3-10^−4 M; Ohya 1970; cited from earlier work

| SMILES | Hyaluronidase activity (%) (microbial hyaluronidase; reagent or salt 10^−2 M) | Hyaluronidase activity (%) (microbial hyaluronidase; reagent or salt 10^−3 M) | Hyaluronidase activity (%) (microbial hyaluronidase; reagent or salt 10^−4 M) | effect on hyaluronidase derived from Stm. Hyalurolyticus [1] | effect on activity of microbial hyaluronidase (microbial hyaluronidase) | effect on hyaluronidase (microbial hyaluronidase) | Hyaluronidase activity (%) (microbial hyaluronidase) | inhibition of hyaluronidase activity (microbial hyaluronidase) [%] | inhibition of activity of microbial hyaluronidase (microbial hyaluronidase) [%] |
| --- | --- | --- | --- | --- | --- | --- | --- | --- | --- |
| O=[N+]([O-])[O-].[Ag+] [AgNO3] | 100 | 100 | 100 |  |  |  |  |  |  |
| [Cl][Mn][Cl] [MnCl2] | 100 | 100 | 100 | inhibit | did not affect |  |  |  |  |
| O=C(O)CN(CCN(CC(=O)O)CC(=O)O)CC(=O)O [EDTA] | 95 | 100 | 100 |  |  |  |  |  |  |
| [Cl-].[Na+] [NaCl] | 100 | 100 | 100 |  |  |  |  |  |  |
| OCCS [beta-Mercaptoethanol] | 0 | 65 | 100 |  |  | completely inhibited |  |  |  |
| [Hg+2] [Hg^2+] |  |  |  | inhibit |  |  |  |  |  |
| [Ca+2].[Cl-].[Cl-] [CaCl2] | 100 | 100 | 100 |  |  |  |  |  |  |
| [Cl-].[Cl-].[Co+2] [CoCl2] |  |  |  |  |  |  | 100 |  |  |
| O=C(O)c1cc[c]([Hg][Cl])cc1 [para-Chloromercury-benzoate] | 80 | 100 | 100 | inhibit | did not affect | partially inhibited |  |  |  |
| [Cl-].[K+] [KCl] | 100 | 100 | 100 |  |  |  |  |  |  |
| [N-]=[N+]=[N-].[Na+] [Na3N] | 100 | 100 | 100 |  |  |  |  |  |  |
| O=S(=O)([O-])[O-].[Fe+2] [FeSO4] | 100 | 100 | 100 |  |  |  |  |  |  |
| II [I2] | 0 | 12 |  |  |  |  |  |  |  |
| O=S(=O)([O-])[O-].[Cu+2] [CuSO4] | 44 | 85 | 100 |  |  |  |  | 56 | 25 |
| O=S(=O)([O-])[O-].[Li+].[Li+] [LiSO4] | 100 | 100 | 100 |  |  |  |  |  |  |
| [Cl][Fe]([Cl])[Cl] [FeCl3] | 35 | 85 | 100 |  |  |  |  | 65 | 25 |
| O=S(=O)([O-])[O-].[Zn+2] [ZnSO4] | 100 | 100 | 100 |  |  |  |  |  |  |
